From US12409162B2, “Carbazole derivatives sensitizing cells to anti-cancer agents” (CENTRE NATIONAL DE LA RECHERCHE SCIENTIFIQUE, priority 2019, dated 2025)
Where two headings read alike, the source gives them in different places.

Key:
[1] = test system: HeLa cell tumors; experiment: HeLa cell xenograft tumor growth in mice; type: in vivo
Procedure: The effects on tumor growth of compound (I-a) and paclitaxel injected separately to the effect of a combined administration of compound (I-a) plus paclitaxel were compared in a tumor mouse model.
A first series of experiments (not shown) assessed that HeLa cell tumors were sensitive to therapeutic doses of paclitaxel. To that aim, mice bearing sizable tumors, formed of HeLa cells that have been xenografted, received intraveinous (i.v.) injections of paclitaxel (from 2 to 8 mg/Kg), every two days during 10 days. In the same experiment, the effect of compound (I-a) (from 15 to 60 mg/Kg, i.v.) injected with the same schedule was analyzed. […] The results confirmed the anti-tumor effect of high paclitaxel concentrations in this model. They also indicate that compound (I-a), when applied alone, has no significant anti-tumor activity, even at high concentrations.
A second experiment was conducted to study of the effect on tumor size of low (2 to 3 mg/Kg) paclitaxel doses in combination with different concentrations of compound (I-a).
Protocol for this combination study: 72 NMRI nude mice (5-week-old females) were injected subcutaneously with 10×10^6 exponentially dividing HeLa cells into the right flank. When tumors have reached a volume of about 200 mm 3 i.e. nine days after cell injection, mice were randomized in 9 groups of 8 mice each and drugs were injected intraveinously every two days. The first group received paclitaxel at 2 mg/kg, the second group received paclitaxel at 3 mg/Kg, the third group received compound (I-a) at 40 mg/Kg, the fourth group received compound (I-a) at 60 mg/Kg, the fifth group received a combination of compound (I-a) (40 mg/Kg) and paclitaxel (2 mg/Kg), the sixth group received a combination of compound (I-a) (40 mg/Kg) and paclitaxel (3 mg/Kg), the seventh group received a combination of compound (I-a) (60 mg/Kg) and paclitaxel (2 mg/Kg), the eight group received a combination of compound (I-a) (60 mg/Kg) and paclitaxel (3 mg/Kg) and the ninth group received the vehicle (14% DMSO, 14% Tween 80 and 72% PBS). Tumor growth was monitored three times per week with a sliding caliper.

[2] = test system: HeLa cells; experiment: FITC Annexin V apoptosis assay by flow cytometry; type: cell-based; conditions: Paclitaxel 1 nM
Procedure: Apoptosis assay was performed with FITC Annexin V Apoptosis Detection Kit I (BD Biosciences, #556547) using flow cytometry and analyzed by FCS express software.

[3] = test system: HeLa cells; experiment: Prestoblue cell viability assay on HeLa cells (compounds alone and with paclitaxel); type: cell-based; conditions: Homo sapiens, HeLa, 72 h, HeLa, 72 h, read-out: GI50 of Paclitaxel
Procedure: Cell viability was analyzed using the colorimetric Prestoblue assay (Invitrogen, #A13262). Cells were seeded in 96 well microplates (Greiner, #655077) at a density of 2,500 cells per well and allowed to adhere for 24 h before being treated for 72 h with either DMSO (0.1% final concentration) or drugs at indicated concentrations. After the 72 h treatment, 10 μL A Prestoblue was added to each well and cells were incubated for another 45 min. The absorbance of each well was measured using FLUOstar Optima microplate reader (Excitation, 544 nm; Emission, 580 nm).
First, the cytotoxicity on HeLa cells of compounds (I-a), (I-c) (I-f), (I-h), (I-e), (I-m), (I-n) and (I-s) was assessed with the above described “prestoblue” assay.
Then, HeLa cells were treated during 72 hours with different concentrations of a mixture of paclitaxel (0.05, 0.1, 0.25, 0.5, 1, 2.5, 5 nM) and compounds (I-a), (I-f), (I-h), (I-e), (I-m), (I-n), (I-c) and (I-s).

[4] = test system: HeLa cells; experiment: Cell cycle distribution by flow cytometry; type: cell-based; conditions: paclitaxel 5 nM, after 15 hours
Procedure: For flow cytometry analysis, Hela cells were treated with the indicated concentrations of compound (I-a) for 12 hours, 24 hours and 48 hours. Cells were then harvested and washed by centrifugation in PBS. Then, 10^5 cells were fixed in 1 mL of 70% methanol at 4° C. overnight. Following two washes with PBS the cells were incubated with 50 μg·mL^−1 propidium iodide and 0.2 mg·mL^−1 RNase A/PBS for 30 min at 37° C. before analysis. The percentage of cells in the specific cell-cycle phases (G0, G1, S, G2, and M) was determined using an Accuri C6 flow cytometer (Becton Dickinson). The results are expressed as the mean±SD of three separate experiments. The significance was determined by a Student's t-test (*p<0.05, **p<0.01, ***p<0.0001, compared with the control). Flow cytometry analysis was performed using HeLa cells. […] The results are expressed as the mean±SD of three separate experiments. The significance was determined by a Student's t-test (*p<0.05, **p<0.01, ***p<0.0001, compared with the control).

[5] = test system: RPE-1 cells; experiment: Prestoblue viability assay on non-cancerous RPE-1 cells; type: cell-based; conditions: Homo sapiens, 72 hours
Procedure: RPE-1 cells were incubated for 72 hours with the indicated combinations of compound (I-a)/paclitaxel. The percentage of viable cells was calculated following a Prestoblue assay, as described above. Data are presented as mean±SEM of 3 independent experiments.

Compound: CC(=O)O[C@H]1C(=O)[C@@]2(C)[C@H]([C@H](OC(=O)c3ccccc3)[C@]3(O)C[C@H](OC(=O)[C@H](O)[C@@H](NC(=O)c4ccccc4)c4ccccc4)C(C)=C1C3(C)C)[C@]1(OC(C)=O)CO[C@@H]1C[C@@H]2O [Paclitaxel, paclitaxel]
- tumor size ([1]; combination study, each compound administered separately (paclitaxel 2 or 3 mg/Kg, (I-a) 40 or 60 mg/Kg)): no effect
- weight of treated animals versus vehicle-treated animals ([1]; first experiment, paclitaxel 2 to 8 mg/Kg or (I-a) 15 to 60 mg/Kg i.v. every two days during 10 days): not significantly different
- tumor size ([1]; first experiment, paclitaxel 4 and 8 mg/Kg i.v. every two days during 10 days): important reduction of tumor size
- % of apoptosis [2]: 13.00 ± 0.48%
- GI50 ([3]; 0.1 μM compound (I-h) added to paclitaxel): 1.25 nM
- GI50 ([3]; 0.2 μM compound (I-h) added to paclitaxel): 1.07 nM
- GI50 ([3]; 0.4 μM compound (I-h) added to paclitaxel): 0.79 nM
- GI50 ([3]; 0.8 μM compound (I-e) added to paclitaxel): 1.36 nM
- GI50 ([3]; 1.2 μM compound (I-c) added to paclitaxel): 0.75 nM
- GI50 ([3]; 1.2 μM compound (I-s) added to paclitaxel): 0.75 nM
- GI50 ([3]; 1.5 μM compound (I-e) added to paclitaxel): 1.25 nM
- GI50 ([3]; 1.5 μM compound (I-f) added to paclitaxel): 1.36 nM
- GI50 ([3]; 3 μM compound (I-a) added to paclitaxel): 1.36 nM
- GI50 ([3]; 3 μM compound (I-e) added to paclitaxel): 1.2 nM
- GI50 ([3]; 3 μM compound (I-f) added to paclitaxel): 1.25 nM
- GI50 ([3]; 3 μM compound (I-m) added to paclitaxel): 1.5 nM
- GI50 ([3]; 3 μM compound (I-n) added to paclitaxel): 1.5 nM
- GI50 ([3]; 6 μM compound (I-a) added to paclitaxel): 1.2 nM
- GI50 ([3]; 6 μM compound (I-f) added to paclitaxel): 0.88 nM
- GI50 ([3]; 6 μM compound (I-m) added to paclitaxel): 1.5 nM
- GI50 ([3]; 6 μM compound (I-n) added to paclitaxel): 1.5 nM
- GI50 ([3]; 12 μM compound (I-a) added to paclitaxel): 0.68 nM
- GI50 ([3]; 12 μM compound (I-m) added to paclitaxel): 1.25 nM
- GI50 ([3]; 12 μM compound (I-n) added to paclitaxel): 1.25 nM
- GI50 ([3]; paclitaxel alone (0 μM compound added), HeLa cells): 1.5 nM
- cell population blocked in G2/M phase [4]: half of the cell population
- cells in apoptosis [4]: ~20%
- GI50 [5]: 7 nM
